Results: PubChem BioAssay (NCI)
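Exposure lasted 48 hours, with cells grown in 96-well plates and compounds tested at five concentrations. Definition used: TGI = concentration required for complete inhibition of growth.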

Experiments:
Experiment in all cases: NCI-60 cell line screen, 48 h
[1] = system: SK-OV-3 ovarian
[2] = system: TK-10 renal
[3] = system: KM20L2 colon
[4] = system: M14 melanoma
[5] = system: DMS 114 small cell lung
[6] = system: IGROV1 ovarian
[7] = system: M19-MEL melanoma
[8] = system: CAKI-1 renal
[9] = system: SNB-78 CNS
[10] = system: SNB-75 CNS
[11] = system: XF 498 CNS
[12] = system: UACC-257 melanoma
[13] = system: SK-MEL-2 melanoma
[14] = system: K-562 leukemia
[15] = system: HCC-2998 colon
[16] = system: SF-295 CNS
[17] = system: NCI-H23 lung
[18] = system: HT29 colon
[19] = system: DLD-1 colon
[20] = system: OVCAR-4 ovarian
[21] = system: U251 CNS
[22] = system: SF-268 CNS
[23] = system: NCI-H226 lung
[24] = system: OVCAR-8 ovarian
[25] = system: LXFL 529 NSCLC
[26] = system: COLO 205 colon
[27] = system: HCT-15 colon
[28] = system: SN12C renal
[29] = system: UO-31 renal
[30] = system: RXF 393 renal
[31] = system: UACC-62 melanoma
[32] = system: LOX IMVI melanoma
[33] = system: KM12 colon
[34] = system: NCI-H522 lung
[35] = system: SF-539 CNS
[36] = system: ACHN renal
[37] = system: DMS 273 small cell lung
[38] = system: RXF-631 renal
[39] = system: OVCAR-3 ovarian
[40] = system: SNB-19 CNS
[41] = system: SW-620 colon
[42] = system: SK-MEL-5 melanoma
[43] = system: EKVX NSCLC
[44] = system: HOP-62 NSCLC
[45] = system: A498 renal
[46] = system: NCI-H460 lung
[47] = system: HL-60(TB) leukemia
[48] = system: OVCAR-5 ovarian
[49] = system: A549 NSCLC
[50] = system: MALME-3M melanoma
[51] = system: HCT-116 colon
[52] = system: 786-0 renal
[53] = system: HOP-92 NSCLC
[54] = system: RPMI-8226 leukemia
[55] = system: CCRF-CEM leukemia
[56] = system: SR leukemia
[57] = system: SK-MEL-28 melanoma
[58] = system: MOLT-4 leukemia

Measured: TGI

O=C(Cc1nc2ccccc2o1)C(=O)Nc1ccccc1C(F)(F)F
not listed: [56] | [57] | [58]
> 100 µM: all other assays above

COc1cccc2c1N[S@](=O)S2
not listed: [5] | [15] | [20] | [24] | [26] | [30] | [42] | [44] | [45] | [46] | [48]
> 100 µM: all other assays above

CCOC(=O)C(C)c1c(C(=O)c2ccc(C)nc2)c2ccccc2n1C (configuration not stated)
not listed: [21] | [23] | [29] | [35] | [40] | [45] | [51] | [56]
> 100 µM: all other assays above
